We go through 4 molecules from patent US20060110449A1, “Pharmaceutical composition” (priority 2004, published 2006).

Structures are written as SMILES.

Data set [1] concerns subjects with Seasonal Allergic Rhinitis (SAR) and Post-Nasal Drip. As to the kind of experiment: Phase II randomized, double-blind, placebo controlled study: symptom scores (post nasal drip, anterior rhinorrhea, total symptom score). Conditions: for least square mean change from baseline in the average AM/PM PRIOR post nasal drip score, percent / least square mean change from baseline in the average AM/PM PRIOR post nasal drip score: 7-day Treatment Phase, Oxy 5 mg BID, combinations given concurrently BID; for least square mean change from baseline in the average AM/PM PRIOR post nasal drip score: all randomized subjects; for anterior rhinorrhea treatment difference vs. placebo: key secondary efficacy variable, BID, DL 2.5 mg, Oxy 5 mg.
Text: (§1) The total target enrollment was 500 subjects with 100 per arm. The study consisted of a 7-day Treatment Phase.
The primary efficacy variable was the change from baseline in the average AM/PM PRIOR post nasal drip score over the Treatment Phase of 7 days. The analysis was based on a main effect analysis of variance (ANOVA), which extracted sources of variation due to treatment and center. […] Pairwise treatment comparisons were examined using the 95% confidence intervals of the treatment differences at an unadjusted 2-sided alpha-level of 0.05.
After the examination of post nasal drip, the key secondary efficacy variable, anterior rhinorrhea, was examined in the same manner.
There were 38 subjects excluded from the efficacy evaluable subset. A majority of these subjects were excluded due to insufficient efficacy data. Determination of evaluability was perfomed prior to unblinding the database. Though the treatment duration specified in the protocol was 7 days, about 70% of subjects also completed their diary on the AM of Day 8 since the final office visit was scheduled on that day. Therefore, the AM Day 8 data were included in the calculation of the one-week average.
The primary efficacy variable was the change from baseline in the average AM/PM PRIOR post nasal drip score over the Treatment Phase of 7 days.

The conditions of data set [2]: DL 2.5 mg BID, Oxy 5 mg BID, combinations BID; 7 days.
Text: as §1
Data set [3] relates to secretions of natural tear components. Conditions: preclinical testing, reportedly; cited from earlier work.
Data set [4] has as its system symptoms most closely associated with chronic nasal congestion (e.g., stuffy nose). The settings on record: reportedly; cited from earlier work.

Turning to `CCN(CC)CC#CCOC(=O)C(O)(c1ccccc1)C1CCCCC1` (centres unmarked) [Oxy, Oxybutynin], in data set [1] (DL 2.5 mg BID), the “least square mean change from baseline in the average AM/PM PRIOR post nasal drip score, percent” value is reported as −17.8% and the “least square mean change from baseline in the average AM/PM PRIOR post nasal drip score” value is on record as −0.49. Further, the “anterior rhinorrhea treatment difference vs. placebo” value in data set [1] (7 days) was found to be 0.04 points. Further, in data set [2], the “discontinuation rate from the treatment phase” value came to 5.56%, the “percentage of subjects reporting any treatment emergent adverse events” value turned out to be 30.6%, the “percentage of subjects reporting dry mouth” value is given as 13.9% and the “subjects reporting any treatment emergent adverse events” value is listed as 33 subjects. Moreover, the “subjects reporting dry mouth” value in data set [2] worked out at 15 subjects.
With `Clc1ccc2c(c1)CCc1cccnc1C2=C1CCNCC1` [DL, desloratadine], in data set [1] (DL 2.5 mg BID), the “least square mean change from baseline in the average AM/PM PRIOR post nasal drip score, percent” value is −24.8% and the “least square mean change from baseline in the average AM/PM PRIOR post nasal drip score” value is listed as −0.68. Besides, the “total symptom score excluding post nasal drip, treatment difference vs. placebo” value in data set [1] (DL 2.5 mg BID, 7 days) is reported as 0.71 point. In addition, the “anterior rhinorrhea treatment difference vs. placebo” value in data set [1] (7 days) is reported as 0.03 points.
With `O=c1ccn([C@@H]2O[C@H](COP(=O)(O)OP(=O)(O)OP(=O)(O)OP(=O)(O)OC[C@H]3O[C@@H](n4ccc(=O)[nH]c4=O)[C@H](O)[C@@H]3O)[C@@H](O)[C@H]2O)c(=O)[nH]1` [diquafosol, Diquafosol tetrasodium], the “secretions of natural tear components” value in data set [3] was “increased”.
For the molecule `Oc1cccc(Nc2ncc(F)c(Nc3cccc(O)c3)n2)c1` [R112], in data set [4], the “absolute difference over placebo” value is 9%; the “improvement from baseline measurements (prior to drug initiation)” value is “up to 38%”; the “relative improvement over placebo” value is “greater than 20%”; the “symptoms most closely associated with chronic nasal congestion (e.g., stuffy nose), over placebo” value is reported as “improved”.
